Measurements reported in ChEMBL document CHEMBL3856245, “New labdane diterpenoids from Croton laui and their anti-inflammatory activities” (Bioorg Med Chem Lett, 2016).

Experiments:
[1] = Antiinflammatory activity in mouse RAW264.7 cells assessed as inhibition of LPS-induced NO production after 24 hrs in presence of LPS by Griess reagent based assay; type: functional, cell-based; conditions: RAW264.7, 24 h
[2] = Cytotoxicity against mouse RAW264.7 cells assessed as reduction in cell viability after 48 hrs by MTT assay; type: toxicity
RAW264.7 = assay: Selectivity index, ratio of CC50 for mouse RAW264.7 cells to antiinflammatory IC50 for mouse RAW264.7 cells; type: functional

Compound | IC50 [1] [µM] | CC50 at 48 h [2] [µM] | Ratio CC50/IC50 (RAW264.7)
C/C(=C\CO)[C@H]1C[C@@H]2[C@@]3(C)CCCC(C)(C)[C@@H]3C[C@H](O)[C@@]2(C)O1 | 42.7 | > 100 | >2.3
C=C/C(C)=C/C[C@H]1[C@](C)(O)[C@@H](O)C[C@H]2C(C)(C)CCC[C@@]21C | 49.3 | 94.5 | 1.9
CC1=CC(=O)O[C@]12C[C@@H]1[C@@]3(C)CCCC(C)(C)[C@@H]3C[C@H](O)[C@@]1(C)O2 | 49.6 | > 100 | >2
COc1ccc2c(c1)c(CC(=O)O)c(C)n2C(=O)c1ccc(Cl)cc1 [INDOMETHACIN] | 16.5 | > 200 | >12.1

Now from value to compound, other results behind:

IC50 [1] [µM] | Compound | CC50 at 48 h [2] [µM] | Ratio CC50/IC50 (RAW264.7)
44.6 | CC1=CC(=O)O[C@@]12C[C@@H]1[C@@]3(C)CCCC(C)(C)[C@@H]3C[C@H](O)[C@@]1(C)O2 | > 100 | >2.2
93 | C/C(C=O)=C\C[C@H]1[C@](C)(O)[C@@H](O)C[C@H]2C(C)(C)CCC[C@@]21C | > 100 | >1.1
